Measurements taken from US8785459B2, “Quinazoline compounds as kinase inhibitors” (Development Center for Biotechnology, priority 2011, dated 2014).

Tests used:
B-Raf = B-Raf (Homo sapiens (Human), UniProt P15056); test: Raf kinase assay (B-Raf), [33P] incorporation into MEK1(K97R); format: biochemical; settings: for inhibition at 1 µM: 1.0 μM compound, read-out: B-Raf inhibition at 1.0 μM
Outline: (§1)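 Recombinant C-Raf (2 ng) or B-Raf or B-Raf V600E (5 ng each) phosphorylated 500 ng MEK1(K97R) with 8 μM ATP plus [33P]ATP, pH 7.5, 30 min at 30 °C. Filter-captured 33P counted. IC50 from 3-fold compound dilutions run in duplicate.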

B-Raf (V600E) = B-Raf (V600E) (Homo sapiens (Human), UniProt P15056, V600E); test: Raf kinase assay (B-Raf (V600E)), [33P] incorporation into MEK1(K97R); format: biochemical
B-Raf (V600E), sequence (P15056 whole entry V600E): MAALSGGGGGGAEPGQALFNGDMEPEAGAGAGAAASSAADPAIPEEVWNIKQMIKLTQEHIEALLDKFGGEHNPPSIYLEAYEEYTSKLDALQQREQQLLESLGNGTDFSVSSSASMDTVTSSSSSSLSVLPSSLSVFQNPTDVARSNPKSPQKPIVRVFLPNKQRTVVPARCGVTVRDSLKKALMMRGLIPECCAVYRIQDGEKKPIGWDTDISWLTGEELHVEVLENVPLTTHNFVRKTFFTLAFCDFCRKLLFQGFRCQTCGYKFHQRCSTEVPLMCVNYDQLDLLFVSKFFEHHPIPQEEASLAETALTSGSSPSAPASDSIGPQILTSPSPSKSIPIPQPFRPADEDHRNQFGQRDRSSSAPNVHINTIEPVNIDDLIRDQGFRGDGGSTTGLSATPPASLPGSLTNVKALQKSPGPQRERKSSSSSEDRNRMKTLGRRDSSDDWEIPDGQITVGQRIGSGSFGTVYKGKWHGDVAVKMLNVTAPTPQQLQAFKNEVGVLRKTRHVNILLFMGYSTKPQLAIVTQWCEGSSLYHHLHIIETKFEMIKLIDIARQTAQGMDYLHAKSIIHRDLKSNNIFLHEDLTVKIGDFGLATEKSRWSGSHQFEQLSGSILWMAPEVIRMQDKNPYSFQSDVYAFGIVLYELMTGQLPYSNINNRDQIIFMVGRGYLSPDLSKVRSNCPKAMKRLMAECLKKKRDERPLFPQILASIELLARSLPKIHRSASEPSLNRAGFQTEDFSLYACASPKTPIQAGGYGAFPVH
Outline: as §1

C-Raf = C-Raf (Homo sapiens (Human), UniProt P04049); test: Raf kinase assay (C-Raf), [33P] incorporation into MEK1(K97R); format: biochemical
C-Raf, sequence (P04049 whole entry): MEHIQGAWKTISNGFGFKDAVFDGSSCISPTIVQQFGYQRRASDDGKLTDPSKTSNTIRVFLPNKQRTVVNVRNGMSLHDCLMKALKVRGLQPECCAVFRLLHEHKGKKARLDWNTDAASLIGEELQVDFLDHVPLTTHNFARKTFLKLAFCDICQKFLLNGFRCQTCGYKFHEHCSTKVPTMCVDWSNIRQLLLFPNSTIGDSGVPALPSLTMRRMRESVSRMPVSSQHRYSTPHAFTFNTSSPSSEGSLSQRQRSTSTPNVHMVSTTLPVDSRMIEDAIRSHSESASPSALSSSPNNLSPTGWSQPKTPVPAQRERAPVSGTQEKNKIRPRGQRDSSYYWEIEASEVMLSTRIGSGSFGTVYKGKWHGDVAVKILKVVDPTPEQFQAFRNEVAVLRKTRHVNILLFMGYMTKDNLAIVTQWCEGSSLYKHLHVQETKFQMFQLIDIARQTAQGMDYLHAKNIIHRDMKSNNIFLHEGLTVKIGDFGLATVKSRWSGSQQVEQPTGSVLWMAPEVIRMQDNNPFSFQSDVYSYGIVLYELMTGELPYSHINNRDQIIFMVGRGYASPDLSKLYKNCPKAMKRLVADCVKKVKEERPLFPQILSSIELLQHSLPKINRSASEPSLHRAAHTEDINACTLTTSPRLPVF
Outline: as §1

A549 = test: Anti-proliferative activity, CellTiter-96 assay, A549; format: cell-based; settings: Homo sapiens, A549 cells, 72 hours incubation
Method: (§2) Antiproliferative Activity
(§3) The anti-proliferative activities of the compounds with formula (I) and formula (II) with respect to four human cancer cell lines (A549, A375, MDA-MB-231, and COLO205) were measured using the CellTiter™-96 assay kit (Promega) following the manufacturer's instructions. In brief, the cells were maintained in DMEM containing 10% FCS and incubated at 37° C. in 5% CO2 atmosphere. Cells were plated at a density of 2000 cells/well of a 96-well plate for 24 h, then treated with different concentrations of the compounds, and incubated for another 72 hours. At the end of the incubation, CellTiter™-96 Aqueous One Solution Reagent (Promega) was added and incubated for another 4.0 hours. Cell viability was determined by measuring absorbance at 490 nm using EMax® microplate reader (Molecular Devices). Data were processed and analyzed using GraphPad Prism version 4.

A375 = test: Anti-proliferative activity, CellTiter-96 assay, A375; format: cell-based; settings: Homo sapiens, A-375, A375 cells, 72 hours incubation
Method: as §2, §3

MDA-MB-231 = test: Anti-proliferative activity, CellTiter-96 assay, MDA-MB-231; format: cell-based; settings: Homo sapiens, MDA-MB-231 cells, 72 hours incubation
Method: as §2, §3

COLO205 = test: Anti-proliferative activity, CellTiter-96 assay, COLO205; format: cell-based; settings: Homo sapiens, COLO 205, COLO205 cells, 72 hours incubation
Method: as §2, §3

B-Raf, sequence (P15056 whole entry): as the sequence (P15056 whole entry V600E) above, with E600V counted along it

Row | Compound | IC50 (B-Raf) [nM] | inhibition at 1 µM (B-Raf) [%] | IC50 (B-Raf (V600E)) [nM] | IC50 (C-Raf) [nM] | IC50 (A549) [nM] | IC50 (A375) [nM] | IC50 (MDA-MB-231) [nM] | IC50 (COLO205) [nM]
1 | Nc1ccc(F)c(-c2ccc3nccc(Nc4cccc5[nH]ncc45)c3c2)c1 [Compound 137, 6-(5-amino-2-fluorophenyl)-N-(1H-indazol-4-yl)quinolin-4-amine] | 149 | 78.2 | 152 | 1330 | 10800 ± 700 | 23600 ± 1200 | 19500 ± 2100 | 8300 ± 400
2 | COc1cc(-c2ccc3ncnc(Nc4cccc5[nH]nc(Cl)c45)c3c2)ccc1O [Compound 126, 4-(4-(3-chloro-1H-indazol-4-ylamino)quinazolin-6-yl)-2-methoxyphenol] | 142 | 83.6 | 162 | 287 | 2700 ± 1700 | 2900 ± 1600 | 2400 ± 1100 | 16800 ± 9300
3 | CS(=O)(=O)c1ccc(-c2ccc3nccc(Nc4cccc5[nH]ncc45)c3c2)cc1 [Compound 120, N-(1H-indazol-4-yl)-6-(4-(methylsulfonyl)phenyl)quinolin-4-amine] | 134 | 88.2 | 119 | 277 | 12100 ± 3200 | 8500 ± 1200 | 10900 ± 1400 | 7300 ± 1000
4 | Oc1ccc(-c2ccc3ncnc(Nc4cccc(O)c4)c3c2)cc1 [Compound 62, 3-(6-(4-hydroxyphenyl)quinazolin-4-ylamino)phenol] | 32.5 | 93.8 | 60.1 | 335 | 3700 ± 1600 | 2600 ± 100 | 7200 ± 1400 | 11700 ± 2500
5 | c1cc(Nc2ncnc3ccc(-c4ccc5c(c4)OCO5)cc23)c2cn[nH]c2c1 [Compound 96, 6-(benzo[d][1,3]dioxol-5-yl)-N-(1H-indazol-4-yl)quinazolin-4-amine] | 141 | 86.1 | 161 | 568 | 14200 ± 2400 | 7700 ± 400 | 12600 ± 1800 | 13000 ± 2400
6 | Oc1c(F)ccc(Nc2ncnc3ccc(-c4ccc5[nH]ncc5c4)cc23)c1F [Compound 163, 3-(6-(1H-indazol-5-yl)quinazolin-4-ylamino)-2,6-difluorophenol] | 2.4 | 94.2 | 4.5 | 256 | 26000 ± 3200 | 4100 ± 700 | 17800 ± 200 | 15700 ± 2000
7 | Oc1cccc(Nc2ncnc3ccc(-c4cccc(O)c4)cc23)c1 [Compound 63, 3-(6-(3-hydroxyphenyl)quinazolin-4-ylamino)phenol] | 27.7 | 93.4 | 51.7 | 300 | 5300 ± 1000 | 2300 ± 600 | 9500 ± 1300 | 7100 ± 1300
8 | COc1cc(-c2ccc3ncnc(Nc4ccc(F)c(Cl)c4)c3c2)ccc1O [Compound 14, 4-(4-(3-chloro-4-fluorophenylamino)quinazolin-6-yl)-2-methoxyphenol] | 1010 | 52.7 | 1090 | 2160 | > 50000 | > 50000 | > 50000 | 31600 ± 2500
9 | COc1ccc(-c2ccc3ncnc(Nc4cccc5[nH]ncc45)c3c2)cc1F [Compound 75, 6-(3-fluoro-4-methoxyphenyl)-N-(1H-indazol-4-yl)quinazolin-4-amine] | 157 | 85 | 221 | 672 | 9600 ± 1200 | 11100 ± 800 | 11600 ± 1700 | 18500 ± 1100
10 | N#Cc1cccc(-c2ccc3ncnc(Nc4cccc5[nH]ncc45)c3c2)c1 [Compound 102, 3-(4-(1H-indazol-4-ylamino)quinazolin-6-yl)benzonitrile] | 134 | 87 | 199 | 294 | > 50000 | > 50000 | > 50000 | > 50000
11 | COc1ccc(-c2ccc3ncnc(Nc4cccc(O)c4)c3c2)cc1 [Compound 64, 3-(6-(4-methoxyphenyl)quinazolin-4-ylamino)phenol] | 62.4 | 91.9 | 105 | 1230 | 11000 ± 3300 | 6000 ± 300 | 15600 ± 800 | 17300 ± 1900
12 | COc1cc(-c2ccc3ncnc(Nc4ccc(F)c(O)c4F)c3c2)ccc1O [Compound 162, 2,6-difluoro-3-(6-(4-hydroxy-3-methoxyphenyl)quinazolin-4-ylamino)phenol] | 2.9 | 94.6 | 4.5 | 197 | 2400 ± 700 | 1500 ± 100 | 2100 ± 100 | 5100 ± 1400
13 | COc1cc(-c2ccc3ncnc(Nc4cc(O)c(Cl)cc4Cl)c3c2)ccc1O [Compound 61, 2,4-dichloro-5-(6-(4-hydroxy-3-methoxyphenyl)quinazolin-4-ylamino)phenol] | 40.1 | 92.6 | 59.9 | 284 | 1600 ± 400 | 1900 ± 500 | 2900 ± 400 | 7400 ± 1900
14 | COc1cc(-c2ccc3ncnc(Nc4cccc5[nH]ncc45)c3c2)ccc1F [Compound 84, 6-(4-fluoro-3-methoxyphenyl)-N-(1H-indazol-4-yl)quinazolin-4-amine] | 172 | 83.1 | 195 | 757 | 8900 ± 1300 | 11500 ± 1900 | 14800 ± 500 | 11500 ± 1300
15 | COc1ccc(-c2ccc3ncnc(Nc4cccc5[nH]ncc45)c3c2)cc1C=O [Compound 98, 5-(4-(1H-indazol-4-ylamino)quinazolin-6-yl)-2-methoxybenzaldehyde] | 73.9 | 92.5 | 105 | 338 | 12700 ± 5300 | 7200 ± 600 | 9600 ± 1600 | 9600 ± 1600
16 | COc1cc(-c2cc3c(Nc4cccc(O)c4)ncnc3cc2OC)ccc1O [Compound 31, 4-(4-(3-hydroxyphenylamino)-7-methoxyquinazolin-6-yl)-2-methoxyphenol] | 87 | 93.8 | 94 | 781 | > 50000 | > 50000 | > 50000 | > 50000
17 | COc1cccc(-c2ccc3ncnc(Nc4cccc5[nH]ncc45)c3c2)c1F [Compound 74, 6-(2-fluoro-3-methoxyphenyl)-N-(1H-indazol-4-yl)quinazolin-4-amine] | 114 | 91.2 | 139 | 751 | > 50000 | > 50000 | > 50000 | > 50000
18 | Oc1cc(Nc2ncnc3ccc(-c4ccc(Cl)cc4)cc23)c(F)cc1F [Compound 160, 5-(6-(4-chlorophenyl)quinazolin-4-ylamino)-2,4-difluorophenol] | 8.9 | 97.9 | 19 | 147 | > 30000 | 8200 ± 1300 | > 30000 | 20900 ± 12600
19 | CCCS(=O)(=O)Nc1cccc(-c2ccc3ncnc(Nc4cccc5[nH]ncc45)c3c2)c1 [Compound 109, N-(3-(4-(1H-indazol-4-ylamino)quinazolin-6-yl)phenyl)propane-1-sulfonamide] | 126 | 85.1 | 164 | 521 | 16900 ± 600 | 14200 ± 1000 | 10100 ± 1100 | 13600 ± 1500
20 | N#Cc1cccc(-c2ccc3nccc(Nc4cccc5[nH]ncc45)c3c2)c1 [Compound 114, 3-(4-(1H-indazol-4-ylamino)quinolin-6-yl)benzonitrile] | 99.2 | 82.3 | 123 | 287 | 4800 ± 1600 | 6300 ± 700 | 6200 ± 600 | 2600 ± 400
21 | COc1cc(-c2ccc3ncnc(Nc4cccc(O)c4Cl)c3c2)ccc1O [Compound 60, 2-chloro-3-(6-(4-hydroxy-3-methoxyphenyl)quinazolin-4-ylamino)phenol] | 39 | 91 | 56.5 | 152 | 1300 ± 200 | 1300 ± 300 | 1700 ± 500 | 6800 ± 160
22 | Oc1cccc(Nc2ncnc3ccc(-c4ccccc4)cc23)c1 [Compound 133, 3-(6-phenylquinazolin-4-ylamino)phenol] | 168 | 85.8 | 254 | 6640 | 9300 ± 1300 | 6000 ± 1000 | 33800 ± 6900 | 11500 ± 800
